Assay results from ChEMBL document CHEMBL3585242, “Pyridine Nucleosides Neopetrosides A and B from a Marine Neopetrosia sp. Sponge. Synthesis of Neopetroside A and Its β-Riboside Analogue” (J Nat Prod, 2015).
The source made the active and inactive calls. The rule behind the calls is not given here.

Columns and labels:
C2C12 [1] = assay: Upregulation of mitochondrial function in mouse C2C12 cells assessed as increase in mitochondrial oxygen consumption rate at 10 uM after 1 hr relative to control; type: functional, cell-based
C2C12 [2] = assay: Cytotoxicity against mouse C2C12 cells assessed as cell viability up to 100 uM after 24 hrs by CellTox green assay; type: cell-based; details: c2c12, 24 h
C2C12 [3] = assay: Upregulation of mitochondrial function in mouse C2C12 cells assessed as increase in mitochondrial ATP level at 10 uM after 1 hr by ToxGlo assay relative to control; type: functional, cell-based

In the case of `O=C([O-])c1ccc[n+]([C@H]2O[C@H](COC(=O)c3ccc(O)cc3)[C@@H](O)[C@H]2O)c1`, the Activity (C2C12 [1]) was “Active”, the Activity (C2C12 [2]) was “Non-toxic” and the Activity (C2C12 [3]) was “Active”.
